# Assay results: patent US11529344B2, “EZH2 inhibitor combination therapies” (Pfizer Inc., priority 2017, dated 2022)
# “Also recorded” adds a separate entry of the source.
# Tested on: DMS114 SCLC xenograft
# From the text: • (i) Compound Formulation: Compound 1 was formulated as a wet-milled nanosuspension (24 hr milling in 2.5% w/v polyvinyl pyrrolidone (PVP), 0.5% w/v Macrogol 15 Hydroxystearate (Kolliphor HS15) aqueous, with <1 μm particle-size distribution (PSD; ˜650 nm median diameter (d50)) for oral gavage administration. • (ii) Cell Implant, Compound Dosing and Tissue Collection: Immune deficient female mice with a severe combined immunodeficiency (SCID) mutation in a non-obese diabetic background (NOD SCID; 6 to 8 week old; NOD.CB17-Prkdcscid/NCrCrl from Charles River Laboratories) received a subcutaneous (SC) implant of 7.5×10^6 DMS114 cells (in 1:1 matrigel (Trevigen, Cultrex BME Path Clear®, Lot #: 30625F14), total volume 200 μl) into the right flank. Tumor volume and body weight were measured twice a week. On Day 20 post implant, 64 mice were randomized, based on tumor size at a geometric mean (geomean) of about 160 mm^3, into 6 groups corresponding to dose (Table 1). Compounds were administered at 10 ml/kg by oral gavage (Compound 1; BID ( 7/17 hours apart)) or intraperitoneal injection (cisplatin), respectively. The cisplatin dosing schedule was once a week for 3 weeks (Q7Dx3) and started 7 days after the randomization and treatment initiation with Compound 1.
# On Day 55, study groups 1, 2, 3 and 4 were terminated (Table 1). Tumor (snap frozen) samples were collected at 4 hours post last dose for pharmacodynamic (PD) analysis. […] Tumor samples from groups 5 and 6 were collected 3 hours post last dose depending on available tumor sizes. All procedures performed on these animals were in accordance with regulations and established guidelines and were reviewed and approved by Pfizer's Institutional Animal Care and Use Committee. • (iii) Data Interpretation: For each experiment, calculations were performed and graphs created in Microsoft Excel and GraphPad Prism version 7.02 respectively. The tumor volume was calculated as 0.5×length×width^2. Tumor growth inhibition (TGI) was determined by the formula: % TGI=[1−(Vtx−Vt0/Vcx−Vc0)]×100, where Vc, Vt are the geometric means of control and treated groups. X=day X on study and 0=initial day of dosing. ELISA Assay: • (i) Histone Extraction: Histone extraction was performed using the EpiQuick Histone Extraction Kit (Epigentek OP0006). Frozen tumor samples were cut and homogenized using cold mortar and pestle on dry-ice. The homogenized mixture was transferred to a 1.5 mL tube in 1× Pre-Lysis Buffer (200 mg/mL) containing phenylmethylsulfonyl fluoride (PMSF). Samples were gently mixed, incubated on ice for 15 minutes, and spun down at 3,000 rpm for 5 minutes at 4° C. The tissue pellet was resuspended in 3 volumes (approximately 200 μL per 100 mg of tissue) of lysis buffer from the Histone Extraction Kit, incubated on ice for 30 minutes, and spun down at 12,000 rpm for 5 minutes at 4° C. Balance-DTT buffer was prepared by adding DTT Solution to balance buffer at a 1:500 ratio. The supernatant (containing acid soluble proteins) was transferred to a new 1.5 mL tube and 0.3 volumes of Balance-dithiothreitol (DTT) buffer from the Histone Extraction Kit were immediately added to each sample. The tumor lysate was briefly sonicated for 4 cycles (30 seconds on and 30 seconds off) at high intensity using the Bioruptor Plus (Diagenode #601020001). Extracts were aliquoted and stored at −20° C. (short term) or −80° C. (long term). Protein concentration was quantified using the Coomassie Plus (Bradford) Assay Kit (Thermo #23236). • (ii) H3K27Me3 and Me2 ELISA Assay: Histone extracts were diluted to a final concentration of 400 ng (or 800 ng) in 100 μL of coating buffer (phosphate buffered saline (PBS) containing 0.05% bovine serum albumin (BSA)).
structure (smiles),measurement,setting,value
"COc1cc(C)[nH]c(=O)c1CN1CCc2c(Cl)cc([C@H](OC)C3COC3)c(Cl)c2C1=O [Compound 1, 5,8-dichloro-2-[(4-methoxy-6-methyl-2-oxo-1,2-dihydro-pyridin-3-yl)methyl]-7-[(R)-methoxy(oxetan-3-yl)methyl]-3,4-dihydroisoquinolin-1(2H)-one]",TGI by Day 55,"Compound 1 100 mg/kg BID PO, cisplatin 4 mg/kg IP Q7Dx3, alone or combined",50%
same,anti-tumor benefit vs vehicle control group,"Compound 1 100 mg/kg BID and 300 mg/kg BID, Day 55",significant anti-tumor benefit
same,tolerability / body weight loss,"Compound 1 PO BID, cisplatin 4 mg/kg IP Q7Dx3, combination with Compound 1 100 mg/kg BID",well tolerated with limited bodyweight loss; also recorded: minimal toxicity
same,complete tumor regressions,"Compound 1 monotherapy arms, 30, 100 and 300 mg/kg BID",No complete tumor regressions
same,tumors regressed or progressed compared to the starting tumor burden,"Day 55, Compound 1 100 mg/kg BID, cisplatin 4 mg/kg Q7Dx3",all tumors had progressed
same,"survival benefit, Log-rank test (Mantel-Cox)",survival cut-off at 500 mm^3 tumor burden,did not reach the P<0.05 significance level
same,median survival,"survival cut-off at 500 mm^3 tumor burden, Compound 1 100 mg/kg BID, cisplatin 4 mg/kg Q7Dx3",39 days
